Read-outs that look alike come from different tables or passages of the source.

The target in assay [1] is PI3K (Homo sapiens, UniProt P42336). Nature of the assay: Fluorescence polarization assay for PI3K.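 Note: PI3K kinase reaction on PIP2 with ATP, 30-60 min, product sensed by GST-GRP with red probe in fluorescence polarization (mP), controls without enzyme and at zero time.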 The class given is biochemical. For orientation: Polarisation of emitted light reports the rotation of a fluorescent probe.
Sequence of PI3K (P42336 whole entry): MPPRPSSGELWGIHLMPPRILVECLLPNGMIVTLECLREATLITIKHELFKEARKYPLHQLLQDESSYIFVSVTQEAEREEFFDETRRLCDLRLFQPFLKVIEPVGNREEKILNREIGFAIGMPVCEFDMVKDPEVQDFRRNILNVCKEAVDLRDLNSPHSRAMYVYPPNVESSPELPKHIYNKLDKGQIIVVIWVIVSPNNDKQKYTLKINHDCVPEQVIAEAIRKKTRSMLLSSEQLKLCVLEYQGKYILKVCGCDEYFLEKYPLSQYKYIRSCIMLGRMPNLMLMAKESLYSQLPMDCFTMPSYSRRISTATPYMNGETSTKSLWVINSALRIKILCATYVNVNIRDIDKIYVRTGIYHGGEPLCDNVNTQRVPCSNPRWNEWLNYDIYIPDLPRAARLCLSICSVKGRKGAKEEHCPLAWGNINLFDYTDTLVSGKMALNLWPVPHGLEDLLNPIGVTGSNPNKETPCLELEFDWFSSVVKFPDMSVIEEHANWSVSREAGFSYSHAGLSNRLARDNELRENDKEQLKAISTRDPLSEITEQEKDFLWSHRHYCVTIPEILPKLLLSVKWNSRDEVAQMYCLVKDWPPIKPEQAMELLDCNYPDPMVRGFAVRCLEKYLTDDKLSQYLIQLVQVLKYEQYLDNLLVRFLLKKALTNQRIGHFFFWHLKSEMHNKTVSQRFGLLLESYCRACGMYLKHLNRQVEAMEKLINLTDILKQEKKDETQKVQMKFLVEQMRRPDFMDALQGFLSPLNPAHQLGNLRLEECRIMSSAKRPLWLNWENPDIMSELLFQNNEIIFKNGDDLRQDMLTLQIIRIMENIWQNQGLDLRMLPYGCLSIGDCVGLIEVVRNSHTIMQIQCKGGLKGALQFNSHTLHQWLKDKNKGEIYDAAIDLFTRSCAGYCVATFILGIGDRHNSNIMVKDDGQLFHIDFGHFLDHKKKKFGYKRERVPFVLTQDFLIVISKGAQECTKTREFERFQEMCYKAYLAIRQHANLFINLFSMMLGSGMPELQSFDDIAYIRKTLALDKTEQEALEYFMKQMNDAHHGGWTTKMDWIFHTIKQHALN
Sequence of PI3K (P27986 whole entry partner): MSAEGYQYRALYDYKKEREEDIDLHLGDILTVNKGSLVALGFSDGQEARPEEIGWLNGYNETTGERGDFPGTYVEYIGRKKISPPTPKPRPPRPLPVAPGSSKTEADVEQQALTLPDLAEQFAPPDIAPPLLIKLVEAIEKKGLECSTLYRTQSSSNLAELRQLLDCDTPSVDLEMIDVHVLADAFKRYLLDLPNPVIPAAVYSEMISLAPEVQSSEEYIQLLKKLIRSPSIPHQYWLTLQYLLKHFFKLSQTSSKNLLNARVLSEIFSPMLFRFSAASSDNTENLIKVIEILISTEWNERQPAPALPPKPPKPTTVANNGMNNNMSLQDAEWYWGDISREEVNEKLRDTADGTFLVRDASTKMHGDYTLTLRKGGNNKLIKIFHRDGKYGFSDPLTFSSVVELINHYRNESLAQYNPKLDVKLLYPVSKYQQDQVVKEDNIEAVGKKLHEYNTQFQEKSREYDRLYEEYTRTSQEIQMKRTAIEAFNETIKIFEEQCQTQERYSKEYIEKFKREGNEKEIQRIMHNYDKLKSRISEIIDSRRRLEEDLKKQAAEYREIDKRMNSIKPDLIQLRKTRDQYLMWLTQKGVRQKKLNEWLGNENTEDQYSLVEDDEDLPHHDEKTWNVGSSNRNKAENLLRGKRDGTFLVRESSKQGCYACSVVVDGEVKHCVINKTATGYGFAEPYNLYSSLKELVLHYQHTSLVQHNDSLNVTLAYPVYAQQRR
The subject of assay [2] is prostate line LNCap. The assay is described as follows: In vitro cell culture growth assay (MTS), LNCap. The class given is cell-based, human. The conditions noted are these: LNCap cells, three days after drug treatment.
Assay [3] relates to breast line MDA468. The assay is described as follows: In vitro cell culture growth assay (MTS), MDA468. The class given is cell-based, human. The following applies: MDA468 cells, three days after drug treatment. In short, it runs like this: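 MDA468 or LNCap cells received inhibitors one day after plating and were grown for three days. Viable cell density read by MTS conversion, absorbance 490 nm, expressed as percent of control growth versus vehicle-treated cells on the same plate.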

The term IC50 denotes the concentration at which inhibition is half-maximal. With `COC(=O)N1CCC(n2ncc3c(N4CCOCC4)nc(-c4ccc(NC(=O)Nc5ccc(CCNCCO)cc5)cc4)nc32)CC1` [Compound 921, methyl 4-[6-(4-{[(4-{2-[(2-hydroxyethyl)amino]ethyl}phenyl)carbamoyl]amino}phenyl)-4-morpholin-4-yl-1H-pyrazolo[3,4-d]pyrimidin-1-yl]piperidine-1-carboxylate], the 50% inhibitory concentration (IC50) in assay [1] (PI3Kα, read-out: PI3Kα IC50) turned out to be 0.012 µM; in assay [2] (Homo sapiens, LNCaP, 72 h) it was 0.001 µM; in assay [3] (Homo sapiens, 72 h) it was 0.12 µM.

For the compound `COCCNCCc1ccc(NC(=O)Nc2ccc(-c3nc(N4CCOCC4)c4cnn(C5CCN(C(=O)OC)CC5)c4n3)cc2)cc1` [Compound 922, methyl 4-[6-(4-{[(4-{2-[(2-methoxyethyl)amino]ethyl}phenyl)carbamoyl]amino}phenyl)-4-morpholin-4-yl-1H-pyrazolo[3,4-d]pyrimidin-1-yl]piperidine-1-carboxylate], the 50% inhibitory concentration (IC50) in assay [1] (PI3Kα, read-out: PI3Kα IC50) was 0.03 µM; in assay [2] (Homo sapiens, LNCaP, 72 h) it was less than 0.0008 µM; in assay [3] (Homo sapiens, 72 h), 0.09 µM.

Consider `O=C(Nc1ccc(-c2nc(N3CCOCC3)c3cnn(C4CCN(CC(F)(F)F)CC4)c3n2)cc1)OCCO` [Compound 923, 2-hydroxyethyl (4-{4-morpholin-4-yl-1-[1-(2,2,2-trifluoroethyl)piperidin-4-yl]-1H-pyrazolo[3,4-d]pyrimidin-6-yl}phenyl)carbamate], for which the IC50 in assay [1] (PI3Kα, read-out: PI3Kα IC50) is 0.737 µM; in assay [2] (Homo sapiens, LNCaP, 72 h), 0.11 µM; in assay [3] (Homo sapiens, 72 h) it was 1.2 µM.

Consider `CC(=O)Nc1ccc(-c2nc(N3CCOCC3)c3cn[nH]c3n2)cc1` [Compound 926, N-[4-(4-morpholin-4-yl-1H-pyrazolo[3,4-d]pyrimidin-6-yl)phenyl]acetamide], for which the IC50 in assay [1] (PI3Kα, read-out: PI3Kα IC50) is 0.442 µM; in assay [2] it was 3.7 µM; in assay [3], 8.5 µM.

Regarding `c1cc2cc(-c3nc(N4CCOCC4)c4cnn(C5CCCCO5)c4n3)ccc2[nH]1` (stereo not drawn) [Compound 928, 6-(1H-indol-5-yl)-4-morpholin-4-yl-1-(tetrahydro-2H-pyran-2-yl)-1H-pyrazolo[3,4-d]pyrimidine], the IC50 amounted to 2.42 µM in assay [1] (PI3Kα, read-out: PI3Kα IC50); 4.2 µM in assay [2]; 1 µM in assay [3].

Take `CNC(=O)Nc1ccc(-c2nc(N3CCOCC3)c3cnn(C4CCOCC4)c3n2)cc1` [Compound 939, 1-methyl-3-{4-[4-morpholin-4-yl-1-(tetrahydro-2H-pyran-4-yl)-1H-pyrazolo[3,4-d]pyrimidin-6-yl]phenyl}urea]: the half-inhibitory concentration (IC50) in assay [1] (PI3Kα, read-out: PI3Kα IC50) turned out to be 0.044 µM; in assay [2] (Homo sapiens, LNCaP, 72 h) it was 0.14 µM; in assay [3] (Homo sapiens, 72 h) it was 0.5 µM.

In the case of `CNC(=O)Nc1ccc(-c2nc(N3CCOCC3)c3cn[nH]c3n2)cc1Cl` [Compound 940, 1-[2-chloro-4-(4-morpholin-4-yl-1H-pyrazolo[3,4-d]pyrimidin-6-yl)phenyl]-3-methylurea], the 50% inhibitory concentration (IC50) in assay [1] (PI3Kα, read-out: PI3Kα IC50) is 0.401 µM; in assay [2] (Homo sapiens, LNCaP, 72 h), 1.95 µM; in assay [3] (Homo sapiens, 72 h) it was 6 µM.

As for `CNC(=O)Nc1ccc(-c2nc(N3C[C@@H](C)O[C@@H](C)C3)c3cnn(C4CCN(Cc5cccnc5)CC4)c3n2)cc1` [Compound 941, 1-(4-{4-[(2R,6S)-2,6-dimethylmorpholin-4-yl]-1-[1-(pyridin-3-ylmethyl)piperidin-4-yl]-1H-pyrazolo[3,4-d]pyrimidin-6-yl}phenyl)-3-methylurea], the IC50 in assay [1] (PI3Kα, read-out: PI3Kα IC50) was determined as 3.88 µM; in assay [2] (Homo sapiens, LNCaP, 72 h), 2 µM; in assay [3] (Homo sapiens, 72 h), 9 µM.

As for `C[C@@H]1COCCN1c1nc(-c2cccc(O)c2)nc2c1cnn2-c1ccccc1` [Compound 942, 3-{4-[(3R)-3-methylmorpholin-4-yl]-1-phenyl-1H-pyrazolo[3,4-d]pyrimidin-6-yl}phenol], the IC50 in assay [1] (PI3Kα, read-out: PI3Kα IC50) amounted to 1.39 µM; in assay [2] (Homo sapiens, LNCaP, 72 h), 2.8 µM; in assay [3] (Homo sapiens, 72 h), 10.2 µM.

As for `CC1CN(c2nc(-c3cccc(O)c3)nc3c2cnn3-c2ccccc2)CCO1` (stereo not drawn) [Compound 943, 3-[4-(2-methylmorpholin-4-yl)-1-phenyl-1H-pyrazolo[3,4-d]pyrimidin-6-yl]phenol], the IC50 amounted to 0.276 µM in assay [1] (PI3Kα, read-out: PI3Kα IC50); 1.9 µM in assay [2] (Homo sapiens, LNCaP, 72 h); 7.5 µM in assay [3] (Homo sapiens, 72 h).

Turning to `COC(=O)N1CCC(n2ncc3c(N4CCOCC4)nc(-c4ccc(O)cc4)nc32)CC1` [Compound 944, methyl 4-[6-(4-hydroxyphenyl)-4-morpholin-4-yl-1H-pyrazolo[3,4-d]pyrimidin-1-yl]piperidine-1-carboxylate], the IC50 in assay [1] (PI3Kα, read-out: PI3Kα IC50) was 2.66 µM; in assay [2] (Homo sapiens, LNCaP, 72 h) it was 0.9 µM; in assay [3] (Homo sapiens, 72 h), 2.1 µM.

As to `COC(=O)N1CCC(n2ncc3c(N4CCOCC4)nc(-c4ccc(NC(=O)Oc5ccccc5)cc4)nc32)CC1` [Compound 945, methyl 4-(4-morpholin-4-yl-6-{4-[(phenoxycarbonyl)amino]phenyl}-1H-pyrazolo[3,4-d]pyrimidin-1-yl)piperidine-1-carboxylate], the IC50 in assay [1] (PI3Kα IC50, PI3Kα) is more than 10 µM; in assay [2] (Homo sapiens, 72 h), 5 µM; in assay [3] (Homo sapiens, 72 h), 20 µM.

In the case of `CNC(=O)Oc1ccc(-c2nc(N3CCOCC3)c3cnn(C4CCN(C(=O)OC)CC4)c3n2)cc1` [Compound 946, methyl 4-(6-{4-[(methylcarbamoyl)oxy]phenyl}-4-morpholin-4-yl-1H-pyrazolo[3,4-d]pyrimidin-1-yl)piperidine-1-carboxylate], the IC50 worked out at 13 µM in assay [1] (PI3Kα IC50, PI3Kα); 1.6 µM in assay [2] (Homo sapiens, 72 h); 7 µM in assay [3] (Homo sapiens, 72 h).

Turning to `C=CC(=O)Nc1ccc(-c2nc(N3CCOCC3)c3cnn(C4CCN(C(=O)C(C)C)CC4)c3n2)cc1` [Compound 947, N-{4-[1-(1-isobutyrylpiperidin-4-yl)-4-morpholin-4-yl-1H-pyrazolo[3,4-d]pyrimidin-6-yl]phenyl}acrylamide], the IC50 in assay [1] (PI3Kα, read-out: PI3Kα IC50) was determined as 1.6 µM; in assay [2] (Homo sapiens, LNCaP, 72 h), 0.98 µM; in assay [3] (Homo sapiens, 72 h), 4.8 µM.

In the case of `COC(=O)N1CCC(n2ncc3c(N4CCOCC4)nc(-c4ccc(NC(=O)Oc5ccc(F)cc5)cc4)nc32)CC1` [Compound 948, methyl 4-[6-(4-{[(4-fluorophenoxy)carbonyl]amino}phenyl)-4-morpholin-4-yl-1H-pyrazolo[3,4-d]pyrimidin-1-yl]piperidine-1-carboxylate], the IC50 was found to be 8.83 µM in assay [1] (PI3Kα IC50, PI3Kα); 0.22 µM in assay [2] (Homo sapiens, 72 h); 0.7 µM in assay [3] (Homo sapiens, 72 h).

Consider `COC(=O)N1CCC(n2ncc3c(N4CCOCC4)nc(-c4ccc(N/C(=N/C#N)Oc5ccccc5)cc4)nc32)CC1` [Compound 949, methyl 4-[6-(4-{[(Z)-(cyanoimino)(phenoxy)methyl]amino}phenyl)-4-morpholin-4-yl-1H-pyrazolo[3,4-d]pyrimidin-1-yl]piperidine-1-carboxylate], for which the concentration for half-maximal inhibition (IC50) in assay [1] (PI3Kα, read-out: PI3Kα IC50) is 1.89 µM; in assay [2] (Homo sapiens, LNCaP, 72 h), 9.8 µM; in assay [3] (Homo sapiens, 72 h), 25 µM.

For the compound `COC(=O)N1CCC(n2ncc3c(N4CCOCC4)nc(-c4ccc(NC(=O)Oc5ccc(Cl)cc5)cc4)nc32)CC1` [Compound 950, methyl 4-[6-(4-{[(4-chlorophenoxy)carbonyl]amino}phenyl)-4-morpholin-4-yl-1H-pyrazolo[3,4-d]pyrimidin-1-yl]piperidine-1-carboxylate], the IC50 in assay [1] (PI3Kα IC50, PI3Kα) was 9.01 µM; in assay [2] (Homo sapiens, 72 h) it was 4.9 µM; in assay [3] (Homo sapiens, 72 h), 17 µM.

Regarding `CC(C)(C)OC(=O)N1CCC(n2ncc3c(N4CCOCC4)nc(-c4ccc(NC(=O)Nc5ccc(F)nc5)cc4)nc32)CC1` [Compound 952, tert-butyl 4-[6-(4-{[(6-fluoropyridin-3-yl)carbamoyl]amino}phenyl)-4-morpholin-4-yl-1H-pyrazolo[3,4-d]pyrimidin-1-yl]piperidine-1-carboxylate], the half-inhibitory concentration (IC50) in assay [1] (PI3Kα, read-out: PI3Kα IC50) came out at 0.13 µM; in assay [2] (Homo sapiens, LNCaP, 72 h) it was 0.06 µM; in assay [3] (Homo sapiens, 72 h), 0.75 µM.

Consider `CC(C)(C)OC(=O)N1CCC(n2ncc3c(N4CCOCC4)nc(-c4ccc(NC(=O)Nc5ccc(CO)cc5)cc4)nc32)CC1` [Compound 953, tert-butyl 4-{6-[4-({[4-(hydroxymethyl)phenyl]carbamoyl}amino)phenyl]-4-morpholin-4-yl-1H-pyrazolo[3,4-d]pyrimidin-1-yl}piperidine-1-carboxylate], for which the IC50 in assay [1] (PI3Kα, read-out: PI3Kα IC50) turned out to be 0.007 µM; in assay [2] (Homo sapiens, LNCaP, 72 h) it was 0.0008 µM; in assay [3] (Homo sapiens, 72 h) it was 0.014 µM.

As to `CC(C)(C)OC(=O)N1CCC(n2ncc3c(N4CCOCC4)nc(-c4ccc(NC(=O)Nc5ccc(CCO)cc5)cc4)nc32)CC1` [Compound 954, tert-butyl 4-{6-[4-({[4-(2-hydroxyethyl)phenyl]carbamoyl}amino)phenyl]-4-morpholin-4-yl-1H-pyrazolo[3,4-d]pyrimidin-1-yl}piperidine-1-carboxylate], the IC50 in assay [1] (PI3Kα, read-out: PI3Kα IC50) amounted to 0.01 µM; in assay [2] (Homo sapiens, LNCaP, 72 h) it was 0.009 µM; in assay [3] (Homo sapiens, 72 h), 0.1 µM.

For the compound `CCn1nc(C#CCN(C)C)c2c(N3CCOCC3)nc(-c3ccc(NC(=O)NC)cc3)nc21` [Compound 955, 1-(4-{3-[3-(dimethylamino)prop-1-yn-1-yl]-1-ethyl-4-morpholin-4-yl-1Hpyrazolo[3,4-d]pyrimidin-6-yl}phenyl)-3-methylurea], the IC50 was found to be 0.025 µM in assay [1] (PI3Kα, read-out: PI3Kα IC50); 0.18 µM in assay [2] (Homo sapiens, LNCaP, 72 h); 0.5 µM in assay [3] (Homo sapiens, 72 h).

Take `CCn1nc(C#CCO)c2c(N3CCOCC3)nc(-c3ccc(NC(=O)Nc4cccnc4)cc3)nc21` [Compound 956, 1-{4-[1-ethyl-3-(3-hydroxyprop-1-yn-1-yl)-4-morpholin-4-yl-1H-pyrazolo[3,4-d]pyrimidin-6-yl]phenyl}-3-pyridin-3-ylurea]: the concentration for half-maximal inhibition (IC50) in assay [1] (PI3Kα, read-out: PI3Kα IC50) was 0.00175 µM; in assay [2] (Homo sapiens, LNCaP, 72 h) it was 0.047 µM; in assay [3] (Homo sapiens, 72 h), 0.09 µM.

For `Oc1cccc(-c2nc(N3CCCOCC3)c3cnn(-c4ccccc4)c3n2)c1` [Compound 962, 3-[4-(1,4-oxazepan-4-yl)-1-phenyl-1H-pyrazolo[3,4-d]pyrimidin-6-yl]phenol], the IC50 amounted to 1.09 µM in assay [1] (PI3Kα, read-out: PI3Kα IC50); 6 µM in assay [2] (Homo sapiens, LNCaP, 72 h); 12 µM in assay [3] (Homo sapiens, 72 h).

As to `COc1ccc(-c2nc(N3CCOCC3)c3cnn(-c4ccccc4)c3n2)cn1` [Example 4], the IC50 in assay [1] (PI3Kα, read-out: PI3Kα IC50) was determined as 5.5 µM; in assay [2] (Homo sapiens, LNCaP, 72 h), 20 µM; in assay [3] (Homo sapiens, 72 h), 38 µM.
